# Laboratory results reported in patent US20110086758A1, “Fungicidal compositions comprising 3'-bromo-2,3,4,6'-tetramethoxy-2',6-dimethylbenzophenone” (BASF SE, priority 2008, published 2011).
# Test system: Sphaerotheca fuliginea
# Test: Field testing on melons, natural infection with Sphaerotheca fuliginea
# Format: in vivo
# Conditions: efficacy in % of untreated control, 3 applications
# Experimental: The visually determined percentages of infected leaf areas were converted into efficacies in % of the untreated control: The efficacy (E) is calculated as follows using Abbot's formula: W=(1−α/β)·100 • α corresponds to the fungicidal infection of the treated plants in % and • β corresponds to the fungicidal infection of the untreated (control) plants in % At an efficacy of 0, the infection level of the treated plants corresponds to that of the untreated control plants; at an efficacy of 100, the treated plants are not infected. The expected efficacies of active compound mixtures were determined using Colby's formula (S. R. Colby, “Calculating synergistic and antagonistic responses of herbicide combinations”, Weeds 15, pp. 20-22 (1967) and compared with the observed efficacies. E=x+y−x·y/100 • expected efficacy, expressed in % of the untreated control, when using the mixture of the active compounds A and B at the concentrations a and b • x efficacy, expressed in % of the untreated control, when using the active compound A at the concentration a • y efficacy, expressed in % of the untreated control, when using the active compound B at the concentration b The trial was carried out under standardized field conditions. Melons were grown in the field. After 36 days, an application with the recited products was carried out, which was repeated two times after 7 days and after 14 days. No further active components for pathogen control were applied. The infection with the pathogen Sphaerotheca fuliginea ensued naturally. Infestation in % of leaf area affected was scored 35 days after the first application. The visually determined values of % of leaf area infected was initially averaged and then converted into efficacies as % of the untreated control. An efficacy of 0 is the same infestation as the untreated control, an efficacy of 100% is 0% infestation. The expected efficacies of active compound combinations were determined as described above using Colby's formula and compared with the observed efficacies. The active compounds were used as commercially available compositions. […]
Structure (SMILES),"Observed effect 35 days after first treatment (dose 30 g ai/ha, scored 35 days after first application)","Observed effect 35 days after first treatment (dose 50 g ai/ha, scored 35 days after first application)","Observed effect 35 days after first treatment (dose 100 g ai/ha, leaf area infested scored 35 days after first application)"
"CC1COC(Cn2cncn2)(c2ccc(Oc3ccc(Cl)cc3)cc2Cl)O1 (stereo not drawn) [Difenoconazole, 1-{2-[2-chloro-4-(4-chlorophenoxy)phenyl]-4-methyl-[1,3]dioxolan-2-ylmethyl}-1H-[1,2,4]triazole]",19%,,
"COc1cc(C)c(C(=O)c2c(OC)ccc(Br)c2C)c(OC)c1OC [Metrafenone, 3′-bromo-2,3,4,6′-tetramethoxy-2′,6-dimethylbenzophenone]",,46%,70%
